# Laboratory results reported in BindingDB's records for doi:10.7270/Q22V2DH9 (Nmmlsc, 2007).
# Target: T1, N-formyl peptide receptor 2 (Homo sapiens, UniProt P25090)
# T1 sequence (P25090 whole entry): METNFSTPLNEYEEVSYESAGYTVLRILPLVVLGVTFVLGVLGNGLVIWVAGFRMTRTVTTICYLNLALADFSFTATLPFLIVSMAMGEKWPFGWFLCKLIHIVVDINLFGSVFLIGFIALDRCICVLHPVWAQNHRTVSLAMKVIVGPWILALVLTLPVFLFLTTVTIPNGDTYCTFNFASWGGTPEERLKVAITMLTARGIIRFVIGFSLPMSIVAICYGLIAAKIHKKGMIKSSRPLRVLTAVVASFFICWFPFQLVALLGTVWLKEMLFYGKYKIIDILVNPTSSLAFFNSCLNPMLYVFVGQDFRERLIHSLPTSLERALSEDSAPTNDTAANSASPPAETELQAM
# Assay: FPRL1 fluorescent ligand binding inhibitors, dose response, selectivity assay for FPR1 ligand SAR project, cell-based, flow cytometry, Ki from IC50 (AID 723)
row,IC50,SMILES
1,> 66.7 µM,"Cc1ccc(C(=O)C2C(=O)C(=O)N(Cc3cccnc3)C2c2ccc(Br)cc2)cc1 (stereo not given) [(4E)-5-(4-bromophenyl)-4-[(4-methylphenyl)-oxidanyl-methylidene]-1-(pyridin-3-ylmethyl)pyrrolidine-2,3-dione]"
2,> 66.7 µM,O=C1C(=O)N(CCCN2CCOCC2)C(c2cccnc2)C1C(=O)c1cc2ccccc2o1 (stereo not given) [3-(1-benzofuran-2-carbonyl)-4-hydroxy-1-(3-morpholin-4-ylpropyl)-2-pyridin-3-yl-2H-pyrrol-5-one]
3,> 66.7 µM,"COc1ccc(C2C(C(=O)N3CCCC(C)C3)c3ccccc3C(=O)N2C)cc1 (stereo not given) [3-(4-methoxyphenyl)-2-methyl-4-(3-methylpiperidin-1-yl)carbonyl-3,4-dihydroisoquinolin-1-one]"
4,> 66.7 µM,"O=C(O)CCCN1C(=O)C(=O)C(C(=O)c2ccccc2)C1/C=C/c1ccccc1 (stereo not given) [4-[(4E)-2,3-bis(oxidanylidene)-4-[oxidanyl(phenyl)methylidene]-5-[(E)-2-phenylethenyl]pyrrolidin-1-yl]butanoic acid]"
5,> 66.7 µM,"COc1ccc(OC)c(C2C(C(=O)c3ccccc3)C(=O)C(=O)N2c2ccc(C)c(Cl)c2)c1 (stereo not given) [(4E)-1-(3-chloranyl-4-methyl-phenyl)-5-(2,5-dimethoxyphenyl)-4-[oxidanyl(phenyl)methylidene]pyrrolidine-2,3-dione]"
6,> 66.7 µM,CC(=O)C1C(=O)C(=O)N(CCc2c(C)[nH]c3ccccc23)C1c1cccc(F)c1 (stereo not given)
7,> 66.7 µM,O=C1C(=O)N(CCCn2ccnc2)C(c2cccnc2)C1C(=O)c1ccco1 (stereo not given) [3-(furan-2-carbonyl)-4-hydroxy-1-(3-imidazol-1-ylpropyl)-2-pyridin-3-yl-2H-pyrrol-5-one]
8,> 66.7 µM,"COc1ccc(C2C(C(=O)c3cc4ccccc4o3)C(=O)C(=O)N2CCN(C)C)cc1OC (stereo not given) [3-(1-benzofuran-2-carbonyl)-2-(3,4-dimethoxyphenyl)-1-[2-(dimethylamino)ethyl]-4-hydroxy-2H-pyrrol-5-one]"
9,> 66.7 µM,O=C1C(=O)N(CCCn2ccnc2)C(c2cccnc2)C1C(=O)c1cc2ccccc2o1 (stereo not given) [3-(1-benzofuran-2-carbonyl)-4-hydroxy-1-(3-imidazol-1-ylpropyl)-2-pyridin-3-yl-2H-pyrrol-5-one]
10,> 66.7 µM,COc1cc(C2C(C(=O)c3cc4ccccc4o3)C(=O)C(=O)N2CCN(C)C)ccc1O (stereo not given) [3-(1-benzofuran-2-carbonyl)-1-[2-(dimethylamino)ethyl]-4-hydroxy-2-(4-hydroxy-3-methoxyphenyl)-2H-pyrrol-5-one]
11,> 66.7 µM,COc1ccc(C(=O)C2C(=O)C(=O)N(CCc3c[nH]c4ccccc34)C2c2ccc(C(C)C)cc2)cc1 (stereo not given)
12,> 66.7 µM,"COc1ccc(OC)c(C2C(C(=O)c3ccc(C)cc3)C(=O)C(=O)N2CCC(=O)O)c1 (stereo not given) [3-[(3E)-2-(2,5-dimethoxyphenyl)-3-[(4-methylphenyl)-oxidanyl-methylidene]-4,5-bis(oxidanylidene)pyrrolidin-1-yl]propanoic acid]"
13,> 66.7 µM,"O=C1C(=O)N(CN2CCOCC2)C(c2ccc(Br)cc2)C1C(=O)c1ccccc1 (stereo not given) [(4E)-5-(4-bromophenyl)-1-(morpholin-4-ylmethyl)-4-[oxidanyl(phenyl)methylidene]pyrrolidine-2,3-dione]"
14,> 66.7 µM,Cc1nc2c(-c3ccc(Cl)cc3)c(C(F)(F)F)[nH]n2c(=O)c1Cc1ccccc1
15,> 66.7 µM,COc1ccc(C2C(C(=O)c3cccs3)C(=O)C(=O)N2CCCn2ccnc2)cc1 (stereo not given) [1-(3-imidazol-1-ylpropyl)-2-(4-methoxyphenyl)-4-oxidanyl-3-thiophen-2-ylcarbonyl-2H-pyrrol-5-one]
16,> 66.7 µM,"COCCCN1C(=O)C(=O)C(C(=O)c2ccccc2)C1c1ccc(C(C)C)cc1 (stereo not given) [(4E)-1-(3-methoxypropyl)-4-[oxidanyl(phenyl)methylidene]-5-(4-propan-2-ylphenyl)pyrrolidine-2,3-dione]"
17,> 66.7 µM,COc1cccc(-c2ccnc3[nH]n(-c4ccccc4)c(=O)c23)c1 [UNM000003608001]
18,> 66.7 µM,"COc1ccc(OC)c(CNC(=O)Cn2c(=O)sc3ccccc32)c1 [N-(2,5-dimethoxybenzyl)-2-(2-keto-1,3-benzothiazol-3-yl)acetamide]"
19,> 66.7 µM,O=C(Oc1ccc2c(=O)c(Oc3ccccc3Br)c(C(F)(F)F)oc2c1)c1cccs1 [2-thiophenecarboxylic acid [3-(2-bromophenoxy)-4-oxo-2-(trifluoromethyl)-1-benzopyran-7-yl] ester]
20,> 66.7 µM,"COc1cccc(/C=C2/C(=O)NN(c3ccc(C)cc3)C2=O)c1 [(4Z)-4-[(3-methoxyphenyl)methylidene]-1-(4-methylphenyl)pyrazolidine-3,5-dione]"
21,> 66.7 µM,"O=C1NC(c2ccc(Br)cc2)C(C(=O)c2ccc(Cl)cc2)C1=O (stereo not given) [(4E)-5-(4-bromophenyl)-4-[(4-chlorophenyl)-hydroxy-methylene]pyrrolidine-2,3-quinone]"
22,> 66.7 µM,"COCCN1C(=O)C(=O)C(C(=O)c2ccccc2)C1c1ccc(C(C)C)cc1 (stereo not given) [(4E)-1-(2-methoxyethyl)-4-[oxidanyl(phenyl)methylidene]-5-(4-propan-2-ylphenyl)pyrrolidine-2,3-dione]"
23,> 66.7 µM,"COc1ccc(-c2c(C(F)(F)F)oc3cc(OC(=O)c4ccco4)ccc3c2=O)cc1OC [2-furancarboxylic acid [3-(3,4-dimethoxyphenyl)-4-oxo-2-(trifluoromethyl)-1-benzopyran-7-yl] ester]"
24,> 66.7 µM,"COc1ccc(C2C(C(=O)c3ccccc3)C(=O)C(=O)N2CCCn2ccnc2)c(OC)c1 (stereo not given) [(4E)-5-(2,4-dimethoxyphenyl)-1-(3-imidazol-1-ylpropyl)-4-[oxidanyl(phenyl)methylidene]pyrrolidine-2,3-dione]"
25,> 66.7 µM,COc1cc(C2C(C(C)=O)C(=O)C(=O)N2c2ccc(Br)cc2)ccc1O (stereo not given) [1-(4-bromophenyl)-3-ethanoyl-2-(3-methoxy-4-oxidanyl-phenyl)-4-oxidanyl-2H-pyrrol-5-one]
